{"source": "ChEMBL document CHEMBL5321200", "about": "“Discovery of the GSH responsive \"Y-PROTACs\" targeting ALK and CDK4/6 as a potential treatment for cancer” (Eur J Med Chem, 2023)", "key": {"[1]": {"target": "Cyclin-dependent kinase 6 (Homo sapiens) (UniProt Q00534)", "sequence (Q00534 whole entry)": "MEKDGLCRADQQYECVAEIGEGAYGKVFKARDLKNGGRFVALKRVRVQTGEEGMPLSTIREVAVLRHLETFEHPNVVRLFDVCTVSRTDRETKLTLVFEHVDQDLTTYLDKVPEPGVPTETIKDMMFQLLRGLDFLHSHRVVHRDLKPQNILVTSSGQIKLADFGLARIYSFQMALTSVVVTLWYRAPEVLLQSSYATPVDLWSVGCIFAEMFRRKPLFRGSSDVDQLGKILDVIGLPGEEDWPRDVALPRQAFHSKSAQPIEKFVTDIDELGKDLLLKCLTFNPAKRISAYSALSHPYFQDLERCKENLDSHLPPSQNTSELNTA", "assay": "Inhibition of CDK6 (unknown origin) at 0.05 uM by LANCE Ultra TR-FRET assay relative to control"}, "NCI-H3122 [2]": {"tested_on": "NCI-H3122", "assay": "Antitumor activity against human NCI-H3122 cells xenografted in BALB/c nude mouse assessed as reduction in tumor volume at 75 mg/kg, IG administered once daily for 18 days and measured after 12 hrs of last dose", "type": "functional, organism-based", "conditions": "time 444.0 hrs"}, "NCI-H3122 [3]": {"tested_on": "NCI-H3122", "assay": "Cell cycle arrest in human NCI-H3122 cells assessed as G2/M phase cells at 0.625 uM incubated for 24 hrs by propidium iodide staining based flow cytometric analysis (reference value: 20.89%)", "type": "functional"}, "[4]": {"assay": "Toxicity in BALB/c nude mouse xenografted with human NCI-H3122 cells assessed as tolerance at 25 to 75 mg/kg, IG administered once daily for 18 days", "type": "organism-based", "conditions": "in vivo, po, 432 h, dose 25-75 mg/kg, time 18 day"}, "[5]": {"target": "T1, Protein cereblon/Cyclin-dependent kinase 4 (Homo sapiens, UniProt P11802+Q96SW2)", "assay": "PROTAC activity at CRBN/CDK4 in human L02 cells assessed as reduction in CDK4 protein level at 1 to 20 uM incubated for 24 hrs in presence of GSH by Western blot analysis", "type": "cell-based", "conditions": "dose 1-20 µM"}, "[6]": {"target": "T1, Protein cereblon/Cyclin-dependent kinase 4", "assay": "PROTAC activity at CRBN/CDK4 in human NCI-H3122 cells assessed as downregulation of phosphorylated Rb level by Western blot analysis", "type": "cell-based"}, "NCI-H3122 [7]": {"tested_on": "NCI-H3122", "assay": "Cell cycle arrest in human NCI-H3122 cells assessed as accumulation of cells at S phase at 0.625 uM incubated for 24 hrs by propidium iodide staining based flow cytometric analysis (reference value: 29.94%)", "type": "functional"}, "[8]": {"target": "Protein cereblon/ALK tyrosine kinase receptor/Echinoderm microtubule-associated protein-like 4 (Homo sapiens) (UniProt Q9UM73+Q9HC35+Q96SW2)", "sequence (Q96SW2 whole entry partner, the tested form may be a part)": "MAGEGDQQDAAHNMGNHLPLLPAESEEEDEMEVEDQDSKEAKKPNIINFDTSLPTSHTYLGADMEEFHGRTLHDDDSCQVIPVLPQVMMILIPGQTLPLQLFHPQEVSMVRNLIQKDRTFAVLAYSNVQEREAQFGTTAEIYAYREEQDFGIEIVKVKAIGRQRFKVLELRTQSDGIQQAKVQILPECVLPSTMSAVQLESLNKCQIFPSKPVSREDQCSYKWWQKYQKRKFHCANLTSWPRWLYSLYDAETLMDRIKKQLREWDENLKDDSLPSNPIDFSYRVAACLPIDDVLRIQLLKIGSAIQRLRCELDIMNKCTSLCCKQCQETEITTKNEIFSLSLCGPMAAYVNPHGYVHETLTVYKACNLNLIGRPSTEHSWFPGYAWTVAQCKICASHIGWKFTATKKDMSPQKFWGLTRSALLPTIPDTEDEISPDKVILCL", "sequence (Q9HC35 whole entry partner, the tested form may be a part)": "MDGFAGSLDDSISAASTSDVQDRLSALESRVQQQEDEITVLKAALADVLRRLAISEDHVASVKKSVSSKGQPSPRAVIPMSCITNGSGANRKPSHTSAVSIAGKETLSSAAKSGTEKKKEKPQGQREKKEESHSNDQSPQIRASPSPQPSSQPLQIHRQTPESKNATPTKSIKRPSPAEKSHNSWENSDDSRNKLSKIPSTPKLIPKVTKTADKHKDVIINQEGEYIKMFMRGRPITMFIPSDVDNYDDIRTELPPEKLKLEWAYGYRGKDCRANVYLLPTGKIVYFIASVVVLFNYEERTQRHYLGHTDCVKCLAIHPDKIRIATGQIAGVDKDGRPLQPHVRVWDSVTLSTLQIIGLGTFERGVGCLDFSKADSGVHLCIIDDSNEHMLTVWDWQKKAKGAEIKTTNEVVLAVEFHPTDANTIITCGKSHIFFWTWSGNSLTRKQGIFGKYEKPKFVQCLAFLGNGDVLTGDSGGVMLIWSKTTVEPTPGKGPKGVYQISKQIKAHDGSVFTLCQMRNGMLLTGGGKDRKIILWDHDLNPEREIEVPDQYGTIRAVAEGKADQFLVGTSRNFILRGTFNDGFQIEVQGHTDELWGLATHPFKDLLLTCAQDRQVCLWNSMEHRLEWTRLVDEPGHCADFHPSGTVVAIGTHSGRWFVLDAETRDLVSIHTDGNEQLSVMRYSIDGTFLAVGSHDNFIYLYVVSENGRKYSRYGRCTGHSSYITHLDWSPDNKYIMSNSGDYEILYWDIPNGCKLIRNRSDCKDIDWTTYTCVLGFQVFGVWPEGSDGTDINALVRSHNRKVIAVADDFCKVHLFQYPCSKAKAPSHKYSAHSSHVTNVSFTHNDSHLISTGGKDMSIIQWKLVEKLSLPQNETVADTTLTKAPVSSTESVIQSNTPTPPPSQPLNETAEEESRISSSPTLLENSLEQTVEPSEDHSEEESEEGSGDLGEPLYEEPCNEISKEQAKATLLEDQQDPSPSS", "sequence (Q9UM73 19-1620 limits assumed)": "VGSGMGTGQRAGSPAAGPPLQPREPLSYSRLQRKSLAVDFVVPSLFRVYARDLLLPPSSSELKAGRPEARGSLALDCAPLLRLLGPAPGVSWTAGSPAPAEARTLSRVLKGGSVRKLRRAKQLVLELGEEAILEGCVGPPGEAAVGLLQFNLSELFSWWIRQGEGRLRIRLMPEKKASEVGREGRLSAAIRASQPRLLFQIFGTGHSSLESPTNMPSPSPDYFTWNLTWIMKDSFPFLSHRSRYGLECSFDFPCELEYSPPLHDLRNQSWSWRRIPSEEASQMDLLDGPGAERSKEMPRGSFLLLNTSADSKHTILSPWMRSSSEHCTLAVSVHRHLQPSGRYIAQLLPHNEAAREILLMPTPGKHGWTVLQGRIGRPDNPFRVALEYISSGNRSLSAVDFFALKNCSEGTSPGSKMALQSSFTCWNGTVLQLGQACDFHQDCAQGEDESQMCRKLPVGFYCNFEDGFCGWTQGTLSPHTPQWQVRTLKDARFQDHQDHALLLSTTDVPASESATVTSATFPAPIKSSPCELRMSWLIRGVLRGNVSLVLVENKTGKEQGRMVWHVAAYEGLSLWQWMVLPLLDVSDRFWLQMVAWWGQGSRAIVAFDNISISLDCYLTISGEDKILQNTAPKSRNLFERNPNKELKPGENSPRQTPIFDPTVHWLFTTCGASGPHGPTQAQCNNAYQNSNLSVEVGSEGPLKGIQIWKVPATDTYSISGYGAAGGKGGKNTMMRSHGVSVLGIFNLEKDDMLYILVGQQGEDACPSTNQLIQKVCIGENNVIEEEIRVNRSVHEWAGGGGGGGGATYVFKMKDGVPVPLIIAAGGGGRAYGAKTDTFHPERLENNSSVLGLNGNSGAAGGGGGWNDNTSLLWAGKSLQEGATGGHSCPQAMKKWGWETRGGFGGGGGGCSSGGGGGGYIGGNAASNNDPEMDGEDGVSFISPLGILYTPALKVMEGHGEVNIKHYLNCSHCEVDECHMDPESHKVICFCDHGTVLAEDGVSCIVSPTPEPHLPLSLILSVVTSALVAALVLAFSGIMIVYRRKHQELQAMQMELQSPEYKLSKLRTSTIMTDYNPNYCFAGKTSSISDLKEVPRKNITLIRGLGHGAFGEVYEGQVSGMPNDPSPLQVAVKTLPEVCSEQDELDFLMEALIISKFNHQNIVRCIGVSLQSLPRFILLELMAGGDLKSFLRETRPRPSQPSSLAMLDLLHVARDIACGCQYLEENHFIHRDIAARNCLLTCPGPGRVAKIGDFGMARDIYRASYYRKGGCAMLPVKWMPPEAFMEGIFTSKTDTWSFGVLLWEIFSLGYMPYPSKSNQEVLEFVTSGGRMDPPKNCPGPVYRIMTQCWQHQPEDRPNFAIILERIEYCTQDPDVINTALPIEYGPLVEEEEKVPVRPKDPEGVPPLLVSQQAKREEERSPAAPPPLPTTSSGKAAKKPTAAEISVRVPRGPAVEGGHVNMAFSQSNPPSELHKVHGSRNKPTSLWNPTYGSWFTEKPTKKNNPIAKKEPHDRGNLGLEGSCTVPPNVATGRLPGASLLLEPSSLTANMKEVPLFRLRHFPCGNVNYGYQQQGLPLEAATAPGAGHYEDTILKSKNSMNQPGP", "assay": "PROTAC activity at CRBN/EML4-ALK in human NCI-H3122 cells assessed as reduction in EML4-ALK fusion protein level at 5 uM incubated for 48 hrs followed by compound washout and measured within 16 hrs by Western blot analysis", "type": "cell-based"}, "NCI-H3122 [9]": {"tested_on": "NCI-H3122", "assay": "Antitumor activity against human NCI-H3122 cells xenografted in BALB/c nude mouse assessed as reduction in tumor weight at 75 mg/kg, IG administered once daily for 18 days and measured after 12 hrs of last dose", "type": "functional, organism-based", "conditions": "time 444.0 hrs"}, "[10]": {"target": "Protein cereblon/Cyclin-dependent kinase 6 (Homo sapiens) (UniProt Q00534+Q96SW2)", "sequence (Q00534 whole entry, looked up)": "as the sequence (Q00534 whole entry) above", "sequence (Q96SW2 whole entry, looked up)": "as the sequence (Q96SW2 whole entry partner, the tested form may be a part) above", "assay": "PROTAC activity at CRBN/CDK6 in human NCI-H3122 cells assessed as reduction in CDK6 protein level at 1 to 10 uM incubated for 24 hrs by Western blot analysis", "type": "cell-based", "conditions": "dose 1-10 µM"}, "[11]": {"target": "T1, Protein cereblon/Cyclin-dependent kinase 4", "assay": "PROTAC activity at CRBN/CDK4 in human NCI-H3122 cells assessed as induction of CDK4 degradation at 5 uM pretreated with pomalidomide for 4 hrs followed compound addition and measured after 24 hrs by Western blot analysis", "type": "cell-based"}, "Mus musculus [12]": {"tested_on": "Mus musculus", "assay": "In vivo PROTAC activity at CRBN/EML4-ALK in BALB/c nude mouse xenografted with human NCI-H3122 cells assessed as reduction in EML4-ALK protein expression in tumor at 75 mg/kg, IG administered once daily for 18 days and measured after 12 hrs of last dose by immunohistochemical analysis", "type": "functional, organism-based", "conditions": "time 444.0 hrs"}, "NCI-H3122 [13]": {"tested_on": "NCI-H3122", "assay": "Inhibition of colony formation in human NCI-H3122 cells assessed as reduction in number of colonies measured after 10 days by crystal violet staining based microscopic analysis", "type": "functional, cell-based", "conditions": "dose 0.039-0.312 µM, time 10.0 day"}, "Mus musculus [14]": {"tested_on": "Mus musculus", "assay": "In vivo PROTAC activity at CDK4 in BALB/c nude mouse xenografted with human NCI-H3122 cells assessed as reduction in CDK4 protein expression level in tumor at 75 mg/kg, IG administered once daily for 18 days and measured after 12 hrs of last dose by immunohistochemical analysis", "type": "functional, organism-based", "conditions": "time 444.0 hrs"}, "[15]": {"assay": "Toxicity in BALB/c nude mouse xenografted with human NCI-H3122 cells assessed as effect on visceral spleen morphology at 75 mg/kg, IG administered once daily for 18 days and measured after 12 hrs of last dose by H and E staining based analysis", "type": "organism-based", "conditions": "in vivo, po, 444 h"}, "NCI-H3122 [16]": {"tested_on": "NCI-H3122", "assay": "Induction of apoptosis in human NCI-H3122 cells assessed as early apoptotic cells at 0.625 uM incubated for 48 hrs by Annexin V-FITC/propidium iodide staining based flow cytometric analysis (reference value: 0.71%)", "type": "functional"}, "NCI-H3122 [17]": {"tested_on": "NCI-H3122", "assay": "Cell cycle arrest in human NCI-H3122 cells assessed as G2/M phase cells at 0.312 uM incubated for 24 hrs by propidium iodide staining based flow cytometric analysis (reference value: 20.89%)", "type": "functional"}, "NCI-H3122 [18]": {"tested_on": "NCI-H3122", "assay": "Antitumor activity against human NCI-H3122 cells xenografted in BALB/c nude mouse assessed as tumor growth inhibition at 50 mg/kg, IG administered once daily for 18 days and measured after 12 hrs of last dose relative to control", "type": "functional", "conditions": "NCI-H3122, po, time 444 hrs, read-out: TGI"}, "[19]": {"assay": "Stability of the compound in PBS buffer assessed as cleavage half life in presence of GSH by LC-MS/MS analysis", "type": "physicochemical", "conditions": "PBS buffer with GSH"}, "[20]": {"assay": "Toxicity in BALB/c nude mouse xenografted with human NCI-H3122 cells assessed as effect on spleen function at 75 mg/kg, IG administered once daily for 18 days by H and E staining based assay", "type": "organism-based", "conditions": "in vivo, po, 432 h, time 18 day"}, "[21]": {"target": "T1, Protein cereblon/Cyclin-dependent kinase 4", "assay": "PROTAC activity at CRBN/CDK4 in human NCI-H3122 cells assessed as induction of CDK4 protein degradation at 10 uM incubated for 24 hrs by Western blot analysis relative to control", "type": "cell-based"}, "NCI-H1299": {"tested_on": "NCI-H1299", "assay": "Antiproliferative activity against human NCI-H1299 cells assessed as inhibition of cell growth pretreated with GSH followed by compound addition and incubated for 3 to 5 days by MTT assay", "type": "functional, cell-based"}, "NCI-H3122 [22]": {"tested_on": "NCI-H3122", "assay": "Induction of apoptosis in human NCI-H3122 cells assessed as late apoptotic cells at 2.5 uM incubated for 48 hrs by Annexin V-FITC/propidium iodide staining based flow cytometric analysis (reference value: 3.06%)", "type": "functional"}, "[23]": {"assay": "Toxicity in BALB/c nude mouse xenografted with human NCI-H3122 cells assessed as effect on visceral heart morphology at 75 mg/kg, IG administered once daily for 18 days and measured after 12 hrs of last dose by H and E staining based analysis", "type": "organism-based", "conditions": "in vivo, po, 444 h"}, "[24]": {"target": "Protein cereblon/ALK tyrosine kinase receptor (Homo sapiens) (UniProt Q9UM73+Q96SW2)", "sequence (Q96SW2 whole entry partner)": "as the sequence (Q96SW2 whole entry partner, the tested form may be a part) above", "sequence (Q9UM73 19-1620 limits assumed)": "as the sequence (Q9UM73 19-1620 limits assumed) above", "assay": "PROTAC activity at CRBN/ALK in human NCI-H2228 cells assessed as reduction in ALK protein level by Western blot analysis", "type": "cell-based"}, "[25]": {"target": "T1, Protein cereblon/Cyclin-dependent kinase 4", "assay": "PROTAC activity at CRBN/CDK4 in human NCI-H3122 cells assessed as decrease in CDK4 protein level at 0.1 to 20 uM incubated for 24 hrs in presence of GSH by Western blot analysis", "type": "cell-based", "conditions": "dose 0.1-20 µM"}, "NCI-H3122 [26]": {"tested_on": "NCI-H3122", "assay": "Antiproliferative activity against human NCI-H3122 cells assessed as inhibition of cell growth incubated for 3 to 5 days by MTT assay", "type": "functional, cell-based"}, "[27]": {"target": "T1, Protein cereblon/Cyclin-dependent kinase 4", "assay": "PROTAC activity at CRBN/CDK4 in human NCI-H3122 cells assessed as reduction in CDK4 protein level incubated for 24 hrs by Western blot analysis", "type": "cell-based"}}, "note": "Activity calls are given as the source filed them. The rule behind the calls is not given here."}
{"smiles": "CC(=O)c1c(C)c2cnc(Nc3ccc(N4CCN(CC(=O)NCCSSCCN(CC(=O)NCCNc5cccc6c5C(=O)N(C5CCC(=O)NC5=O)C6=O)C(=O)CCCCCCC(=O)N5CCC(c6cc(OC(C)C)c(Nc7ncc(Cl)c(Nc8ccccc8S(=O)(=O)C(C)C)n7)cc6C)CC5)CC4)cn3)nc2n(C2CCCC2)c1=O", "note": "(stereo not drawn)", "values": [{"measurement": "inhibition", "setting": "[1]", "result": 92, "unit": "%"}, {"measurement": "Activity", "setting": "NCI-H3122 [2]", "result": "Active"}, {"measurement": "Activity", "setting": "NCI-H3122 [3]", "result": 16.42, "unit": "%"}, {"measurement": "Activity", "setting": "[4]", "result": "Non-Toxic"}, {"measurement": "Activity", "setting": "[5]", "result": "inactive"}, {"measurement": "Activity", "setting": "[6]", "result": "Active"}, {"measurement": "Activity", "setting": "NCI-H3122 [7]", "result": 14.44, "unit": "%"}, {"measurement": "Activity", "setting": "[8]", "result": "Active"}, {"measurement": "Activity", "setting": "NCI-H3122 [9]", "result": "Active"}, {"measurement": "Activity", "setting": "[10]", "result": "inactive"}, {"measurement": "Activity", "setting": "[11]", "result": "inactive"}, {"measurement": "Activity", "setting": "Mus musculus [12]", "result": "Active"}, {"measurement": "inhibition", "setting": "NCI-H3122 [13]", "result": "Dose-Dependent Effect"}, {"measurement": "Activity", "setting": "Mus musculus [14]", "result": "Active"}, {"measurement": "Activity", "setting": "[15]", "result": "Non-Toxic"}, {"measurement": "Activity", "setting": "NCI-H3122 [16]", "result": 0.88, "unit": "%"}, {"measurement": "Activity", "setting": "NCI-H3122 [17]", "result": 18.82, "unit": "%"}, {"measurement": "inhibition in vivo at 50 mg/kg", "setting": "NCI-H3122 [18]", "result": 54.8, "unit": "%"}, {"measurement": "half-life", "setting": "[19]", "result": "> 24", "unit": "h"}, {"measurement": "Activity", "setting": "[20]", "result": "Non-Toxic"}, {"measurement": "Activity", "setting": "[21]", "result": 70, "unit": "%"}, {"measurement": "IC50", "setting": "NCI-H1299", "result": 4.73, "unit": "µM"}, {"measurement": "Activity", "setting": "NCI-H3122 [22]", "result": 15.81, "unit": "%"}, {"measurement": "Activity", "setting": "[23]", "result": "Non-Toxic"}, {"measurement": "Activity", "setting": "[24]", "result": "Active"}, {"measurement": "Activity", "setting": "[25]", "result": "inactive"}, {"measurement": "IC50", "setting": "NCI-H3122 [26]", "result": 0.14, "unit": "µM"}, {"measurement": "EC50", "setting": "[27]", "result": 3.69, "unit": "µM"}]}
